Data published in publication PMC8335354 (Biology of Reproduction, 2021).
“Also recorded” adds a separate entry of the source. Values belong to the molecule of their own block, whether it stands above or below them.

Tests used:
[1] = tested on: parthenogenetic embryos (zygotic gene activation); experiment: Transcriptional activity; assay type: cell-based, mouse; settings: 2 mM EU from 5 h to 24 h after activation
[2] = tested on: mouse SCNT-derived embryos; experiment: In vivo development of SCNT-derived embryos, two-cell transfer; settings: for No. of implantations / No. of offspring / No. of placentas only / implantations (%) / offspring (%) / placentas only (%): 8 h treatment, two-cell transfer
[3] = tested on: mouse SCNT-derived embryos; experiment: In vivo development of SCNT-derived embryos, morula/blastocyst transfer; settings: 8 h treatment
[4] = tested on: mouse SCNT-derived embryos; experiment: In vitro development of SCNT-derived embryos treated with HDAC inhibitors; assay type: cell-based
[5] = tested on: pups derived from HDAC inhibitor-treated SCNT-derived embryos; experiment: Body and placental weights of cloned pups at term; assay type: in vivo, mouse; settings: 19.5 dpc, mean ± SD
[6] = tested on: mouse SCNT-derived embryos; settings: cited from earlier work
[7] = inhibitor treatment 8 h, Table 4

SMILES: O=C(CCCCC[C@@H]1NC(=O)[C@H]2CCCN2C(=O)[C@@H]2CCCCCCCCCC[C@@H](NC1=O)C(=O)N2)NO [Ky-309]
- EU fluorescence intensity / effect on ZGA at the two-cell stage [1]: no adverse effects on ZGA
- No. of implantations ([2]; 0.5 nM): 32
- No. of offspring ([2]; 0.5 nM): 1
- No. of placentas only ([2]; 0.5 nM): 0 (0)
- implantations (%) ([2]; 0.5 nM): 38.1%
- offspring (%) ([2]; 0.5 nM): 1.2%
- placentas only (%) ([2]; 0.5 nM): 0 (0) %
- No. of implantations ([2]; 1 nM): 21
- No. of offspring ([2]; 1 nM): 0 (0)
- No. of placentas only ([2]; 1 nM): 0 (0)
- implantations (%) ([2]; 1 nM): 30.9%
- offspring (%) ([2]; 1 nM): 0 (0) %
- placentas only (%) ([2]; 1 nM): 0 (0) %
- No. of implantations ([2]; 5 nM): 33
- No. of offspring ([2]; 5 nM): 1
- No. of placentas only ([2]; 5 nM): 2
- implantations (%) ([2]; 5 nM): 50.0%
- offspring (%) ([2]; 5 nM): 1.5%
- placentas only (%) ([2]; 5 nM): 3.0%
- No. of cloned offspring ([3]; 5 nM): 0 (0)
- No. of implantations ([3]; 5 nM): 4
- No. of placentas only ([3]; 5 nM): 0 (0)
- cloned offspring (%) ([3]; 5 nM): 0 (0) %
- implantations (%) ([3]; 5 nM): 19.0%
- placentas only (%) ([3]; 5 nM): 0 (0) %
- No. of cloned offspring ([3]; 100 nM): 1
- No. of implantations ([3]; 100 nM): 4
- No. of placentas only ([3]; 100 nM): 1
- cloned offspring (%) ([3]; 100 nM): 16.7%
- implantations (%) ([3]; 100 nM): 66.7%
- placentas only (%) ([3]; 100 nM): 16.7%
- No. of two-cell embryos at 24 h ([4]; 0.5 nM, 8 h treatment, Table 2): 251
- two-cell embryos at 24 h (%) ([4]; 0.5 nM, 8 h treatment, Table 2): 87.2%
- No. of two-cell embryos at 24 h ([4]; 1 nM, 8 h treatment, Table 2): 190
- two-cell embryos at 24 h (%) ([4]; 1 nM, 8 h treatment, Table 2): 76.9%
- No. of four-cell embryos at 48 h ([4]; 5 nM, 8 h treatment, Table 1): 89
- No. of morula/blast at 72 h ([4]; 5 nM, 8 h treatment, Table 1): 61
- No. of two-cell embryos at 24 h ([4]; 5 nM, 8 h treatment, Table 1): 106
- four-cell embryos at 48 h (% per 2 cells) ([4]; 5 nM, 8 h treatment, Table 1): 84.0%
- morula/blast at 72 h (% per 2 cells) ([4]; 5 nM, 8 h treatment, Table 1): 57.5%
- two-cell embryos at 24 h (%) ([4]; 5 nM, 8 h treatment, Table 1): 93.8%
- No. of two-cell embryos at 24 h ([4]; 5 nM, 8 h treatment, Table 2): 66
- two-cell embryos at 24 h (%) ([4]; 5 nM, 8 h treatment, Table 2): 90.4%
- No. of four-cell embryos at 48 h ([4]; 100 nM, 8 h treatment, Table 1): 27
- No. of morula/blast at 72 h ([4]; 100 nM, 8 h treatment, Table 1): 6
- No. of two-cell embryos at 24 h ([4]; 100 nM, 8 h treatment, Table 1): 58
- four-cell embryos at 48 h (% per 2 cells) ([4]; 100 nM, 8 h treatment, Table 1): 46.6%
- morula/blast at 72 h (% per 2 cells) ([4]; 100 nM, 8 h treatment, Table 1): 10.3%
- two-cell embryos at 24 h (%) ([4]; 100 nM, 8 h treatment, Table 1): 84.0%
- developmental block / embryotoxicity in SCNT-derived embryos (in words) ([4]; treatment at the one-cell stage): embryonic toxicity; also recorded: moderate two-cell developmental block
- Body weight at term (g ± SD) [5]: 1.61 ± 0.21 g
- Placental weight at term (g ± SD) [5]: 0.31 ± 0.05 g

- Placental weight at term (g ± SD) [5]: 0.28 ± 0.07 g
SMILES: CC(/C=C/C(=O)NO)=C\[C@@H](C)C(=O)c1ccc(N(C)C)cc1 [TSA, trichostatin A, reference compound]
- pup rates per embryos transferred ([6]; mouse SCNT-derived embryos): more than 5%
- EU fluorescence intensity / effect on ZGA at the two-cell stage [1]: no adverse effects on ZGA
- No. of implantations ([2]; 5 nM): 69
- No. of offspring ([2]; 5 nM): 8
- No. of placentas only ([2]; 5 nM): 3
- implantations (%) ([2]; 5 nM): 63.3%
- offspring (%) ([2]; 5 nM): 7.3%
- placentas only (%) ([2]; 5 nM): 2.8%
- pup rates (birth rates of clones), range over both transfer series ([2]; morula/blastocyst and two-cell transfer experiments): 6.7–7.3%
- No. of cloned offspring ([3]; 5 nM): 1
- No. of implantations ([3]; 5 nM): 6
- No. of placentas only ([3]; 5 nM): 0 (0)
- cloned offspring (%) ([3]; 5 nM): 6.7%
- implantations (%) ([3]; 5 nM): 40.0%
- placentas only (%) ([3]; 5 nM): 0 (0) %
- No. of four-cell embryos at 48 h ([4]; 5 nM, 8 h treatment, Table 1): 45
- No. of morula/blast at 72 h ([4]; 5 nM, 8 h treatment, Table 1): 32
- No. of two-cell embryos at 24 h ([4]; 5 nM, 8 h treatment, Table 1): 49
- four-cell embryos at 48 h (% per 2 cells) ([4]; 5 nM, 8 h treatment, Table 1): 91.8%
- morula/blast at 72 h (% per 2 cells) ([4]; 5 nM, 8 h treatment, Table 1): 65.3%
- two-cell embryos at 24 h (%) ([4]; 5 nM, 8 h treatment, Table 1): 76.5%
- No. of two-cell embryos at 24 h ([4]; 5 nM, 8 h treatment, Table 2): 133
- two-cell embryos at 24 h (%) ([4]; 5 nM, 8 h treatment, Table 2): 86.9%
- Blastocysts at 96 h (% per two cells) [4, 7]: 68.2%
- Morulae at 96 h (% per two cells) [4, 7]: 0 (0) %
- No. of embryos at 96 h, Blastocysts [4, 7]: 15
- No. of embryos at 96 h, Morulae [4, 7]: 0 (0)
- No. of four-cell embryos at 48 h [4, 7]: 19
- No. of two-cell embryos at 24 h [4, 7]: 22
- four-cell embryos at 48 h (% per two cells) [4, 7]: 86.4%
- two-cell embryos at 24 h (%) [4, 7]: 100%
- Body weight at term (g ± SD) [5]: 1.57 ± 0.15 g

SMILES: CCCC(CCC)C(=O)O [VPA, valproic acid]
- effect on mouse SCNT [6]: no effect
